Measurements published in patent US10973819B2, “Small molecules inhibitors of RAD51” (The University of Chicago, priority 2016, dated 2021).
Entries after “also recorded” stand apart in the source; their conditions may differ. Read-outs that look alike come from different tables or passages of the source.

Assays:
RAD51 [1] = molecular target: T1, RAD51 (Homo sapiens, UniProt Q06609); test: Fluorescence polarization-based DNA binding assay (RAD51-ssDNA binding); format: biochemical; conditions: for ssDNA binding IC50 / IC50: Stim = stimulator; for Emax: read-out: ssDNA binding Max effect; for influence on RAD51-ssDNA binding, in words: summary of Tables 2 and 3
T1 sequence (Q06609 1-339): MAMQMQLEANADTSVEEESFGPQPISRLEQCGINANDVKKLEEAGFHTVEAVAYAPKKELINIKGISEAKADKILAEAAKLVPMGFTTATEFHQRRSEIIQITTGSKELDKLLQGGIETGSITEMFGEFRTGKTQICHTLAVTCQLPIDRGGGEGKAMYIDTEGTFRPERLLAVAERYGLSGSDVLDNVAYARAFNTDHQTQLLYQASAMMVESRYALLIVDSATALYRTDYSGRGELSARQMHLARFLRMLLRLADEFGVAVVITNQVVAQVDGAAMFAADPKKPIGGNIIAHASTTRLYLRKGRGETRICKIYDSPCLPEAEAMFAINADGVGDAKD
Experimental: The fluorescence polarization-based DNA binding assay and purification of human RAD51 used for this assay was performed as previously described with a few modifications.^23 Reactions were carried out in black 384-well polystyrene plates. In each well, RAD51 protein was combined with reaction buffer and varying concentrations of compound in DMSO in an initial volume of 40 μl and incubated at 37° C. for 40 minutes. Then, 10 μl of reaction buffer containing fluorescently-labeled ssDNA substrate (5′-Alexa488-oligo-dT45) was added and the reaction incubated at 37° C. for another 40 minutes, after which the plate was read on a Tecan Infinite 200 Pro plate reader equipped with two sets of 485±25 nm/535±35 nm with parallel or perpendicularly-oriented polarization filters. In both steps of the reaction setup, buffer components were maintained at 20 mM HEPES-NaOH (pH 7.5), 2 mM ATP, 10 mM MgCl2, 0.1 mM TCEP-HCl (tris(2-carboxyethyl)phosphine), and 0.25 μM BSA. The final reaction contained 4% DMSO, 0.2 μM RAD51, 30 mM NaCl, 2% glycerol, and 2.22 nM ssDNA substrate. Compound IC50 values were obtained by least-squares regression fitting of appropriate linear, log, or sigmoid dose-response models to the data, with the standard error indicated. […]

293-DR-GFP cells = test: DR-GFP assay, quantitation of HR efficiency in cells; format: cell-based, human; conditions: 24-hour incubation, FIG. 5a
Experimental: 293-DR-GFP cells were electroporated in Opti-MEM with 37.5 μg/ml pCBASce in 0.4 cm cuvettes at 325 V, 975 μF and seeded into 6-well plates with 2.5 ml complete DMEM+0.5% DMSO with compound and allowed to outgrow for 24 hours. Following outgrowth, cells were harvested and suspended in PBS with 1 μg/ml 7-aminoactinomycin D (7-AAD) and analyzed on a BD FACSCalibur flow cytometer. Dead and apoptotic cells were gated out based on size, shape, and 7-AAD staining and the fraction of GFP-positive cells among the population of live cells was determined.
The DR-GFP assay was used to test the ability of representative compounds to inhibit HR in human cells.^27 Briefly, cells containing the chromosomal DR-GFP reporter were transfected with a plasmid that expresses I-SceI, a rare-cutting endonuclease that makes a DSB within the DR-GFP cassette. Compounds were added at the time of transfection and the cells were outgrown for 24 hours. For longer outgrowth periods such as 48 hours, cells regained some HR activity. To overcome this technical limitation, the relatively early time point of 24 hours was selected to describe the in vivo effects of these compounds.

RAD51 [2] = molecular target: T1, RAD51; test: Gel-based D-loop assay; format: biochemical; conditions: for IC50: read-out: D-Loops IC50; for D-loop inhibitory activity, in words: summary of Tables 2 and 3
Experimental: Human RAD51 in reaction buffer was combined with compound in […] DMSO, incubated at 37° C. for 10 min, and then 1 μl of 5′-^32P-labeled 90-mer ssDNA (5′-[…]) with homology to the plasmid pRS306 ^34 was added and the reaction was incubated at 37° C. for an additional 5 minutes. 1 μl of supercoiled pRS306 was then added to the reaction and incubated at 37° C. for 20 minutes; at this point the reaction consisted of 25 mM HEPES-NaOH (pH 7.0), 1 mM ATP, 1 mM MgCl2, 1 mM DTT, 1.5 μM BSA, 4.5% DMSO, 0.5 μM RAD51, 11 mM NaCl, 1% glycerol, 20 nM ssDNA, and 5 nM pRS306. The reactions were de-proteinized with 0.8% SDS and 0.8 mg/ml proteinase K, mixed with gel loading buffer, and run on a 0.9% agarose/1×TAE gel, which was dried and exposed to a phosphor screen overnight and imaged on a Storm 860 PhosphorImager. Compound IC50 values were obtained by least-squares regression fitting of appropriate linear, log, or sigmoid dose-response models to the data, with the standard error indicated.
To improve upon the D-loop inhibitory activity, medicinal chemical studies were undertaken to optimize 8. First, different functional groups were appended to rings A and B as substituents, including alkyl groups of different sizes, electron withdrawing/donating groups, and hydrogen bond donor/acceptor groups. Next, replacement of the phenyl ring B with different heterocycles or other saturated/unsaturated rings was investigated in order to probe its role. For each of the prepared compounds, the gel-based D-loop assay and the microplate-based DNA binding assay were used to characterize the biochemical activities.

[3] = Stability on exposure to air at room temperature; format: physicochemical; conditions: slowly oxidized over time to compound 8
Description: These experimental results signify that compound 7 and 1 are distinct compounds. Compound 7 was not stable when exposed to air at room temperature; instead, it slowly oxidized over time to compound 8 (Scheme 2). Additionally, some of the oxidized product 8 was always produced during the preparation of compound 7.

[4] = Table 3, cells marked ↑: compound stimulates RAD51-ssDNA binding
[5] = Table 2, cells marked ↑: compound stimulates RAD51-ssDNA binding
[6] = Table 1, cells marked ↑: compound stimulates RAD51-ssDNA binding
[7] = Table 3, cells marked ↓: compound inhibits RAD51-ssDNA binding

SMILES	ssDNA binding IC50 (RAD51 [1]; Table 3)	Emax (RAD51 [1]; [4]) [%]	influence on RAD51-ssDNA binding, in words (RAD51 [1])	IC50 (RAD51 [2]; Table 3) [µM]	D-loop inhibitory activity, in words (RAD51 [2])	also measured
CN(C)c1ccc(-c2nc3cc(O)ccc3n3cccc23)cc1 [Compound 12g, 4-(4-(Dimethylamino)phenyl)pyrrolo[1,2-a]quinoxalin-7-ol]	Stim	34 ± 32	only weakly influenced	9.8	–	inhibitory activity in the cell-based HR (DR-GFP) assay relative to 1 and 8, in words (293-DR-GFP cells): comparable or slightly less inhibitory activity; D-Loops Max inhibition effect (RAD51 [2]; Table 3): 91 ± 8%
c1ccc2c(-c3nc4ccccc4n4cccc34)cccc2c1 [Compound 11d, 4-(Naphthalen-1-yl)pyrrolo[1,2-a]quinoxaline]	–	–	modest influence	–	weak	ssDNA binding IC50 (RAD51 [1]; Table 2): Stim; Emax (RAD51 [1]; [5]): 56 ± 31%
COc1ccc2c(c1)nc(-c1ccc(N(C)C)cc1)c1cccn12 [Compound 8, 4-(7-Methoxypyrrolo[1,2-a]quinoxalin-4-yl)-N,N-dimethylaniline]	–	–	–	–	–	ssDNA binding IC50 (RAD51 [1]; Table 1): Stim; Emax (RAD51 [1]; [6]): 40 ± 28%; D-Loops Max inhibition effect (RAD51 [2]; Table 1): 67%; IC50 (RAD51 [2]; Table 1): 13 µM
c1cncc(-c2nc3ccccc3n3cccc23)c1 [Compound 11a, 4-(Pyridin-3-yl)pyrrolo[1,2-a]quinoxaline]	–	–	–	–	moderate	IC50 (RAD51 [1]; Table 2): > 100 µM; Emax (RAD51 [1]; Table 2, cells marked ↓: compound inhibits RAD51-ssDNA binding): 6 ± 10%; IC50 (RAD51 [2]; Table 2): 71.7 ± 18.1 µM
Nc1ccc(-c2nc3cc(OCCF)ccc3n3cccc23)cc1 [Compound 15b, 4-(7-(2-Fluoroethoxy)pyrrolo[1,2-a]quinoxalin-4-yl)aniline]	Stim	79 ± 23	stimulators; also recorded: modest effects	20 ± 4.1	–	–
COc1ccc2c(c1)nc(-c1ccc(O)cc1)c1cccn12 [Compound 12a, 4-(7-Methoxypyrrolo[1,2-a]quinoxalin-4-yl)phenol]	–	–	relatively strong ssDNA binding inhibition	> 100	–	IC50 (RAD51 [1]; Table 3): 35 ± 14 µM; Emax (RAD51 [1]; [7]): 100 ± 18%; D-Loops Max inhibition effect (RAD51 [2]; Table 3): 13 ± 12%
CN(C)c1ccc(-c2nc3cc(OC(C)(C)C(N)=O)ccc3n3cccc23)cc1 [Compound 16, 2-((4-(4-(Dimethylamino)phenyl)pyrrolo[1,2-a]quinoxalin-7-yl)oxy)-2-methylpropanamide]	Stim	131 ± 28	stimulators	> 100	–	–
COc1ccc2c(c1)NC(c1ccc(N(C)C)cc1)c1cccn1-2 (stereo not shown) [Compound 7, 4-(7-Methoxy-4,5-dihydropyrrolo[1,2-a][13]quinoxalin-4-yl)-N,N-dimethylaniline]	–	–	–	–	–	ssDNA binding IC50 (RAD51 [1]; Table 1): Stim; Emax (RAD51 [1]; [6]): 47%; inhibitory activity in the cell-based HR (DR-GFP) assay relative to 1 and 8, in words (293-DR-GFP cells): comparable; D-Loops Max inhibition effect (RAD51 [2]; Table 1): 17%; stability when exposed to air at room temperature [3]: not stable
CN(C)c1ccc(-c2nc3cc(F)c(F)cc3n3cccc23)cc1 [Compound 12m, 4-(7,8-Difluoropyrrolo[1,2-a]quinoxalin-4-yl)-N,N-dimethylaniline]	Stim	65 ± 22	–	–	nearly absent	–
CCCOc1ccc2c(c1)nc(-c1ccc(N)cc1)c1cccn12 [Compound 15a, 4-(7-Propoxypyrrolo[1,2-a]quinoxalin-4-yl)aniline]	Stim	117 ± 18	stimulators	46.1 ± 2.8	–	–
C1=C(c2nc3ccccc3n3cccc23)CCCC1 [Compound 11c, 4-(Cyclohex-1-en-1-yl)pyrrolo[1,2-a]quinoxaline]	–	–	modest influence	–	weak	ssDNA binding IC50 (RAD51 [1]; Table 2): Stim; Emax (RAD51 [1]; [5]): 42 ± 17%
CN(C)c1ccc(-c2nc3cc(F)ccc3n3cccc23)cc1 [Compound 12j, 4-(7-Fluoropyrrolo[1,2-a]quinoxalin-4-yl)-N,N-dimethylaniline]	Stim	57 ± 28	–	–	nearly absent	–
Nc1ccc(-c2nc3cc(F)ccc3n3cccc23)cc1 [Compound 12i, 4-(7-Fluoropyrrolo[1,2-a]quinoxalin-4-yl)aniline]	–	–	–	25 ± 5.1	–	IC50 (RAD51 [1]; Table 3): 81.5 ± 16.6 µM; Emax (RAD51 [1]; [7]): 60 ± 18%
Nc1ccc(-c2nc3cc(O)ccc3n3cccc23)cc1 [Compound 12f, 4-(4-Aminophenyl)pyrrolo[1,2-a]quinoxalin-7-ol]	–	–	modest effects	8.4 ± 3.4	–	IC50 (RAD51 [1]; Table 3): 96.9 ± 44.9 µM; Emax (RAD51 [1]; [7]): 82 ± 23%; inhibitory activity in the cell-based HR (DR-GFP) assay relative to 1 and 8, in words (293-DR-GFP cells): comparable or slightly less inhibitory activity
